# Key:
# [1] = tested on: PKC; test: PKC inhibitors on ING-B-driven receptor downregulation in CD4+ T lymphocytes; format: cell-based, human; conditions: 0.1 µM inhibitor in the presence of 1 µM ING-B
# Experimental: (§1) For analysis of cell surface marker expression, MT-4 cells and bead-selected CD4+ T cells (described above) were incubated with 1 µM of each compound (ING-A, ING-B, ING-C, prostratin, PMA, and bryostatin-1) at 37°C for 48 h. After incubation, cells were washed with PBS and incubated for 20 min at room temperature with antibodies against CD3-Brilliant Violet 510 (clone OKT3 – Biolegend), CD4-Qdot 655 (clone 53.5 - Life Technologies), CXCR4-PE (clone 1265 - BD Biosciences), CCR5-PerCP-Cy5.5 (clone 3A9 - BD Biosciences), CD69-Pacific Blue (clone FN50 – BD Biosciences), CD38-FITC (clone AT-1 – Stem Cell Technologies), CD25-APC (clone 2A3 – BD Biosciences), HLA-DR-Qdot 605 (clone TÜ36 – Life Technologies) and a marker for annexin V-FITC (Life Technologies). Cells (both MT-4 cells and CD4+ T cells) were initially incubated for 2 h with different PKC inhibitors (GÖ6983, GÖ6976 or RO-31-8220). Then, ING-B, prostratin or PMA at 1 µM or TNF-α at 10 ng/mL were added to each condition and incubation was carried out for 24 h at 37°C. Similar protocol was used for the analysis of PKC inhibitors in J-Lat clones 9.2 and 10.6. GFP expression, surface marker expression and activation marker were evaluated on a LSR Fortessa cytometer (BD Biosciences). Data analysis was performed using FlowJo software (Tree Star).
# [2] = tested on: PKC; test: PKC inhibitors on ING-B-driven receptor downregulation in MT-4 cells; format: cell-based; conditions: 0.1 µM inhibitor, then 1 µM ING-B 24 h
# Experimental: as §1
# [3] = tested on: PKC; test: PKC inhibitors on diterpene-induced GFP expression in J-Lat clones 9.2 and 10.6; format: cell-based; conditions: J-Lat clones 9.2 and 10.6, pre-treatment, then ING-B 24 h
# Experimental: as §1
# [4] = Cytotoxicity (CC50) in MT-4 cells; format: cell-based; conditions: human, Subtype B (X4)
# Experimental: (§2) Cytotoxicity of ISDs was evaluated in J-Lat (clones 9.2 and 10.6) and PHA-activated human PBMCs. Cells were added to wells in a 96-well plate in the presence of various concentrations of ISDs, PMA or prostratin in sextuplicates for 24 and 72 h. Cell viability was determined using the CellTiter-blue fluorescence Cell Viability Assay (Promega) following the manufacturer's instruction.
# (§3) Human PMBCs were incubated with 100 U recombinant IL-2 (Sigma-Aldrich) and 5 µg/mL phytohemagglutinin-P (PHA-P) (Difco) for 5 days at 37°C. MT-4 cells (1×10^6) or treated PBMCs (1.2×10^8) were infected with HIV-1 clone NL-4.3 or ZM247Fv-1 (MOI of 0.001) by spinoculation (1200 g at room temperature for 2 h). Uninfected cells were used as negative control and were also subjected to the spinoculation process. After spinoculation, supernatants were discarded and cells were resuspended in 10 mL of R10. Cells from each condition were then added to wells (96-well plate) containing serial dilutions of each ISD. For MT-4 cells, each dilution was done in sextuplicates and, for PBMCs, in triplicates. Cells were also incubated with different concentrations of ZDV as positive control. After 5 days in culture, Cell Titer Blue was added to each well and cells were incubated for additional 24 h. The median effective concentration for each drug is defined as EC50. In parallel with the infectivity assay, the same cell types were treated with different concentrations of drugs to determine their cytotoxicity, following the protocol described above. Drug concentration that results in a 50% decrease in viable cells is defined as the CC50 for each compound. EC50 was calculated according to Spearman-Karber and therapeutic index was defined by the ratio between CC50 and EC50 [55].
# [5] = tested on: HIV LTR in J-Lat clones; test: LTR-driven GFP expression in J-Lat clones; format: cell-based, HIV-1; conditions: J-Lat clones 9.2 and 10.6, 48 h, all concentrations tested
# Experimental: J-Lat cells are Jurkat cells stably transfected by an HIV genome whose nef sequence was replaced by the GFP gene. Also, a frameshift mutation was introduced to the env gene to prevent virus spread. […] To test the ISDs, a million cells of each clone were treated with different concentrations of each compound (ING-A, ING-B, ING-C, prostratin and PMA) at 37°C. TNF-α (10 ng/mL) was used as a positive control. After 48 h, cells were collected, washed with saline solution (PBS) and GFP expression was evaluated in a FACScalibur cytometer (BD Biosciences). Data were analyzed with Cell Quest Pro software (BD Biosciences).
# [6] = tested on: HIV-1 clone ZM247Fv-1 (subtype C); test: HIV-1 ZM247Fv-1 (subtype C) infection of human PBMCs, Cell Titer Blue readout; format: cell-based; conditions: for TI (CC50/EC50): Human PBMC, Subtype C (R5); for EC50: Human immunodeficiency virus 1, PBMC
# Experimental: as §3
# (§4) All statistical analyses were performed using program GraphPism version 6.0. Titrations for TCID50 infectivity were calculated by the Spearman-Karber method. Dose response curves to ISDs with HIV-1 subtype B and C were done using non-linear regression and were fit to the Hill equation.
# [7] = tested on: HIV-1 clone ZM247Fv-1 (subtype C); test: HIV-1 ZM247Fv-1 (subtype C) infection of MT-4 cells, Cell Titer Blue readout; format: cell-based; conditions: for EC50: Human immunodeficiency virus 1, MT4; for TI (CC50/EC50): MT-4 cells, Subtype C (R5)
# Experimental: as §3, §4
# [8] = Cytotoxicity (CC50) in human PBMCs; format: cell-based; conditions: human PBMCs activated with IL-2 and PHA-P; Human PBMC, Subtype C (R5)
# Experimental: as §2, §3
# [9] = tested on: HIV-1 clone NL4.3 (subtype B); test: HIV-1 NL4.3 (subtype B) infection of MT-4 cells, Cell Titer Blue readout; format: cell-based; conditions: for EC50: Human immunodeficiency virus 1, MT4; for TI (CC50/EC50): MT-4 cells, Subtype B (X4)
# Experimental: as §3, §4
# [10] = tested on: HIV-1 clone NL4.3 (subtype B); test: HIV-1 NL4.3 (subtype B) infection of human PBMCs, Cell Titer Blue readout; format: cell-based; conditions: for TI (CC50/EC50): Human PBMC, Subtype B (X4); for EC50: Human immunodeficiency virus 1, PBMC
# Experimental: as §3, §4
# [11] = tested on: CD4, CXCR4, CCR5 on MT-4 cells; test: Surface CD4, CXCR4, CCR5 expression in MT-4 cells (cytometry); format: cell-based; conditions: 1 µM
# Experimental: as §1
# [12] = tested on: CD4, CXCR4, CCR5 on CD4+ T lymphocytes; test: Surface CD4, CXCR4, CCR5 expression in CD4+ T lymphocytes (cytometry); format: cell-based, human; conditions: CD4+ lymphocytes, 1 µM
# Experimental: as §1
# [13] = tested on: HIV-1 latency; parameters: method as in PMID 15284245; conditions: statement in discussion, reference given only in the next sentence; cited from earlier work
# [14] = tested on: CD4+ T lymphocytes; test: Activation markers CD25, CD38, HLA-DR, CD69 on CD4+ T lymphocytes (cytometry); format: cell-based, human; conditions: 1 µM
# Experimental: For analysis of cell surface marker expression, MT-4 cells and bead-selected CD4+ T cells (described above) were incubated with 1 µM of each compound (ING-A, ING-B, ING-C, prostratin, PMA, and bryostatin-1) at 37°C for 48 h. […] Cells (both MT-4 cells and CD4+ T cells) were initially incubated for 2 h with different PKC inhibitors (GÖ6983, GÖ6976 or RO-31-8220). Then, ING-B, prostratin or PMA at 1 µM or TNF-α at 10 ng/mL were added to each condition and incubation was carried out for 24 h at 37°C. […] GFP expression, surface marker expression and activation marker were evaluated on a LSR Fortessa cytometer (BD Biosciences). Data analysis was performed using FlowJo software (Tree Star).
# [15] = tested on: ACH-2 cells; test: gag p24 production in ACH-2 cells (ELISA); format: cell-based, HIV-1; conditions: ACH-2, 1 µM, 48 h
# Experimental: (§5) ACH-2 and J1.1 are clonal cell lines derived from CEM [52] and Jurkat cells, respectively, after infection with HIV-1. U1 cells were derived from the human promonocyte cell line U937 and chronically infected with HIV-1 [54]. Each cell line (1×10^6 cells) was incubated in the presence of 1 µM of diterpenes (ING-A, ING-B, ING-C, prostratin and PMA) or 10 ng/mL TNF-α for 48 h at 37°C. After incubation, cells were centrifuged and supernatants were collected for the quantitation of gag p24 antigen by ELISA, following the protocol described by the manufacturer (Perkin Elmer).
# [16] = tested on: HIV-1 p24 in J-Lat clones; test: HIV-1 p24 production in J-Lat clones (ELISA); format: cell-based
# Experimental: as §5
# To assess whether the GFP expression levels induced by ISDs in J-Lats led to viral production, all five clones were stimulated with 1 µM of each compound for 48 h and production of HIV-1 p24 was measured in the culture supernatant by ELISA. Levels of p24 were proportional to GFP expression in clones 6.3 and 9.2, whereas levels in clone 8.4 were lower when compared to GFP (Figure 3A).
Structure (SMILES),CC50 at 5 days [4] [nM],"levels of GFP expression, rank order [5]",TI (CC50/EC50) [6],EC50 [6] [nM],EC50 [7] [nM],TI (CC50/EC50) [7],CC50 at 5 days [8] [nM],EC50 [9] [nM],TI (CC50/EC50) [9],TI (CC50/EC50) [10],EC50 [10] [nM],downregulation of surface CD4 and CXCR4 (in words) [11],downregulation of surface CCR5 [12],also measured
COc1ccc2c(c1)c(C1=C(c3c[nH]c4ccccc34)C(=O)NC1=O)cn2CCCN(C)C [GÖ6983],–,–,–,–,–,–,–,–,–,–,–,–,–,overexpression of CD4 and CCR5 compared to untreated control [1]: up to 2.5 fold; effect on ING-B-driven receptor downregulation [2]: not able to downregulate the expression of CD4 and CXCR4; blocking of GFP expression induced by ING-B [3]: strongly blocked GFP expression
"CC1=C[C@]23C(=O)[C@@H](C=C(CO)[C@@H](O)[C@]2(O)[C@H]1OC(=O)/C=C/c1ccccc1)[C@H]1[C@@H](C[C@H]3C)C1(C)C [ING-A, ingenol-3-trans-cinnamate]",25000,PMA = ING-B > ING-A = ING-C > prostratin,693.9,49,38,657.9,34000,37,675.6,641.5,53,–,–,–
CCC/C=C/C=C/C(=O)O[C@H]1/C(=C/C(=O)OC)C[C@H]2C[C@H]([C@@H](C)O)OC(=O)C[C@H](O)C[C@@H]3C[C@H](OC(C)=O)C(C)(C)[C@](O)(C[C@@H]4C/C(=C/C(=O)OC)C[C@H](/C=C/C(C)(C)[C@]1(O)O2)O4)O3 [bryostatin-1],–,–,–,–,–,–,–,–,–,–,–,not by prostratin and bryostatin-1,less efficient in downregulating surface expression of CCR5,–
"CCCCCCCCCCCC(=O)O[C@H]1C(C)=C[C@]23C(=O)[C@@H](C=C(CO)[C@@H](O)[C@]12O)[C@H]1[C@@H](C[C@H]3C)C1(C)C [ING-C, ingenol-3-dodecanoate]",27000,PMA = ING-B > ING-A = ING-C > prostratin,413,92,36,750,38000,41,658.5,730.7,52,–,–,–
"CC(=O)O[C@@]12C[C@@H](C)[C@@]3(O)[C@@H](C=C(CO)C[C@]4(O)C(=O)C(C)=C[C@@H]34)[C@@H]1C2(C)C [prostratin, 12-deoxyphorbol 13-acetate]",–,PMA = ING-B > ING-A = ING-C > prostratin,–,–,–,–,–,–,–,–,–,not by prostratin and bryostatin-1,less efficient in downregulating surface expression of CCR5,"concentration required to reactivate HIV-1 latency [13]: higher than 2 µM; CD25 surface expression [14]: upregulated; HLA-DR surface expression [14]: not by prostratin; p24 production (in words) [15]: low levels of p24 production; p24 in culture supernatant ([16]; J-Lat clone 15.4, 1 µM, 48 h): does not appear to work; HIV-LTR activation, overall comparison ([16]; J-Lat clones, GFP and p24 taken together): the less effective compound among all tested"
